Assay results published in patent US12441725B2, “ISO-citrate dehydrogenase (IDH) inhibitor” (ZHEJIANG METON PHARMACEUTICAL CO., LTD, priority 2019, dated 2025).

Columns and labels:
IDH1 R132C = target: T1, IDH1 R132C (Homo sapiens, UniProt O75874, R132C); assay: Biochemical assay for IDH inhibition (NADPH fluorescence), mutant IDH1 R132C; settings: 25 nM IDH1-R132C, 1 hour pre-incubation, in triplet
T1 construct: 6xHis
From the text: (§1) The present disclosure provides a biochemical assay method for detecting the IDH inhibition and selectivity of the compounds by detecting IDH enzyme activity directly.
(§2) Wild-type IDH enzymes convert NADP^+ to NADPH when catalyzing the α-KG producing reaction. Mutant IDH enzymes convert NADPH to NADP^+ when catalyzing the D-2-HG producing reaction. So, the activity of wild-type and mutant IDH1/2 could be measured by monitoring NADPH level change as NADPH is fluorescent (Excitation 340 nm, Emission 460 nm). By monitoring the change of NADPH level in the reaction, the enzyme activity could be determined rapidly and efficiently and IC50 of a compound could also be assayed.
(§3) The test compounds are prepared into 50 mM stock solutions in DMSO and stored at −20° C. Each test compound stock is further diluted to obtain a 100× stock solution at a concentration of 400 μM, 200 μM, 100 μM, 50 μM, 25 μM, 12.5 μM, 6.25 μM and 3.125 μM, respectively, for the final use on the day of test (the concentration range of 100× stock solutions might be adjusted to cover the estimated IC50 of a specific test compound).
(§4) Inhibition of Mutant IDH1 (R132H or R132C):
(§5) To assay the enzymatic activity of mutant IDH1 proteins, 25 nM IDH1-R132C or 50 nM IDH1-R132H protein solutions are prepared in 20 mM Tris-HCl pH7.5, 150 mM NaCl, 10 mM MgCl2, 1 mM DTT, 0.05 mg/ml BSA and 1.33 mM α-KG. 148 μL 25 nM IDH1-R132C or 50 nM IDH1-R132H protein solutions are mixed with 2 μL DMSO (vehicle control for test compounds) or an above-mentioned 100× stock solution of a test compound and incubated for 1 hour at room temperature. Extra reactions containing 148 μL no-enzyme solution (20 mM Tris-HCl pH7.5, 150 mM NaCl, 10 mM MgCl2, 1 mM DTT, 0.05 mg/ml BSA and 1.33 mM α-KG) and 2 μL DMSO are also set up as background controls. Then each reaction is initiated by adding 50 μL 80 μM NADPH solution prepared in 20 mM Tris-HCl pH7.5, 150 mM NaCl, 10 mM MgCl2, 1 mM DTT and 0.05 mg/ml BSA. BioTek Synergy H1 Microplate reader (BioTek Instruments Inc., Winooski, U.S.) is employed to monitor the NADPH fluorescence (Excitation 340 nm, Emission 460 nm) every 42 seconds for 15 minutes. NADPH change rate is determined according to the linear phase of the fluorescence-time curve and results from the background control reactions are used as background subtraction to calculate the net NADPH change rates of other reactions. The net NADPH change rates from the vehicle control reactions are used as 100% enzymatic activity and thus the relative enzymatic activity of reactions with test compounds added could be determined. Then a dose-response curve is drawn for each test compound and the corresponding IC50 is calculated. The IC50 value is used to evaluate the inhibition and selectivity of each test compound on the IDH enzymatic activity.
(§6) The IDH inhibition activity of the compounds were assessed according to Test 2 of the Biological Assay section. The test for mutant IDH1 R132H and IDH1 R132C inhibition of each compound was carried out in triplet. As used in Table 5, “A” refers to an inhibitory activity against IDH1 R132H or IDH1 R132C with an IC50<0.1 μM; “B” refers to an inhibitory activity against IDH1 R132H or IDH1 R132C with an IC50 from 0.1 μM to 0.5 μM; “C” refers to an inhibitory activity against IDH1 R132H or IDH1 R132C with an IC50 from 0.5 μM to 1 μM; “D” refers to an inhibitory activity against IDH1 R132H or IDH1 R132C with an IC50>1 μM.

[1] = target: T2, IDH (endogenous IDH1 R132C) in HT1080 cell (Homo sapiens, UniProt O75874, R132C); assay: Cell-based assay for IDH inhibition (decrease of D-2-HG) in HT1080 cells; settings: human fibrosarcoma cell line HT1080, 16 hours treatment, D-2-HG by LC-MS, in triplet
T2 construct: which harbor endogenous heterozygous IDH1 R132C and R132H mutation respectively and accumulate D-2-HG
From the text: The present disclosure also provides a cell-based method for assaying IDH inhibition and selectivity of the compounds in human fibrosarcoma cell line HT1080 and cholangiocarcinoma cell line HCCC 9810, which harbor endogenous heterozygous IDH1 R132C and R132H mutation respectively and accumulate D-2-HG. Tumor -derived IDH mutant lost its normal activity of producing α-KG, and gained a new activity of producing D-2-HG. D-2-HG is a metabolite specifically elevated in tumor cells expressing mutant IDH1 or IDH2 proteins. When treating such mutant IDH-expressing tumor cells with an effective IDH inhibitor, the synthesis of D-2-HG is blocked, and D-2-HG concentration is decreased by the oxidation reaction catalyzed by the endogenous D-2-HG dehydrogenase.
To perform a cell-based IDH inhibition assay, HT1080 and HCCC 9810 cells (or other cell lines harboring different IDH mutations) are cultured in DMEM supplemented with 10% FBS. The cells are treated with compounds of present disclosure at various different concentrations. 16 hours after the treatment, culture medium supernatants are removed and cell metabolites are extracted by 40% methanol and 40% acetonitrile in water (pre-chilled under −80° C.) at 4° C. for 1 hour. The extract supernatants are collected and cell debris are removed via high speed centrifugation. The resulting metabolite extracts are analyzed on an Agilent LC-MS system (model: 1290-6470) for 2-HG and glutamate concentration. A HILIC-Z column (2.1 mm×100 mm, […]) is employed on HPLC. Mobile phase A is 15 mM CH3COONH4 and 0.3% NH3·H2O in water. Mobile phase B is 15 mM CH3COONH4 and 0.3% NH3·H2O in 90% MeCN/10% H2O solvent. An 19% solvent A and 81% solvent B isocratic gradient method is used at a flow rate of 0.3 ml/min. D-2-HG is ionized under negative ion spray mode and detected through the multiple-reaction monitoring of a mass transition pair at m/z=147.0/128.9 and 147.0/85.1. Glutamate is ionized under ion spray mode and detected on negative polarity multiple-reaction monitoring of a mass transition pair at m/z=146/102 and 146/128 and its level is used to normalize 2-HG concentration. The activity of cellular mutant IDH proteins in the presence of each test compound at different concentrations can be represented by relative D-2-HG concentration to negative control samples (i.e., cells are treated with DMSO only), and the IC50 value could be determined to evaluate the inhibition and selectivity of each test compound on the IDH enzymatic activity.
The IDH inhibition activity of the compounds were assessed in human fibrosarcoma cell line HIT1080 according to Test 3 of the Biological Assay section. The test for IDH inhibition of each compound was carried out in triplet. As used in Table 6, “A” refers to an IDH inhibitory activity with an IC50<0.1 μM; “B” refers to an IDH inhibitory activity with an IC50 from 0.1 μM to 0.5 μM; “C” refers to an IDH inhibitory activity with an IC50 from 0.5 μM to 1 μM; “D” refers to an IDH inhibitory activity with an IC50>1 μM.

IDH1 R132H = target: T3, IDH1 R132H (Homo sapiens, UniProt O75874, R132H); assay: Biochemical assay for IDH inhibition (NADPH fluorescence), mutant IDH1 R132H; settings: 50 nM IDH1-R132H, 1 hour pre-incubation, in triplet
T3 construct: 6xHis
From the text: as §1, §2, §3, §4, §5, §6

T1 sequence (O75874 whole entry R132C): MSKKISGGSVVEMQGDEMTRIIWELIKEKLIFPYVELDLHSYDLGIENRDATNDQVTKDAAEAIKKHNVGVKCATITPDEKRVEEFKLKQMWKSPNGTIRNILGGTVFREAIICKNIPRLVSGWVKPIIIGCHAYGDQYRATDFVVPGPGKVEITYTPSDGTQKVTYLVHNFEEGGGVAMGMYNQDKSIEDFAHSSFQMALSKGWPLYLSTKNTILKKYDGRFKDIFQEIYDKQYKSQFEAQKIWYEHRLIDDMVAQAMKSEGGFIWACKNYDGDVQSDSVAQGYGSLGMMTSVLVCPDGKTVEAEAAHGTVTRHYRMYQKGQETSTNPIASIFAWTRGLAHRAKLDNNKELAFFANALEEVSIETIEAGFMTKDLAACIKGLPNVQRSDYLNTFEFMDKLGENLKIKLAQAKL
T2 sequence (O75874 2-414 R132C): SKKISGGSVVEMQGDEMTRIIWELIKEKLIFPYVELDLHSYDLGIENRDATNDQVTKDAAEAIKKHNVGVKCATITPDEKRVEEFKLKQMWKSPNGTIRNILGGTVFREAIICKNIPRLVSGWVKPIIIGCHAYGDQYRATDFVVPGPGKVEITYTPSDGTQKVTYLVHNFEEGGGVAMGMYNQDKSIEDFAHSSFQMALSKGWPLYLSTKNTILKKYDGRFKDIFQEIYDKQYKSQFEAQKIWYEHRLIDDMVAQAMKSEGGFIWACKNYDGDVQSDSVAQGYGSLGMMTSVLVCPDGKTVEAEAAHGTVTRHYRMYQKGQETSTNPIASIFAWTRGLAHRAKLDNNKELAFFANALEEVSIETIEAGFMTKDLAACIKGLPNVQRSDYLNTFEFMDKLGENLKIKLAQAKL
T3 sequence (O75874 whole entry R132H): as the sequence (O75874 whole entry R132C) above, with C132H counted along it

`CCN1Cc2c(ccnc2N[C@@H](C)c2ccc(Oc3ccnc(C(F)(F)F)c3)c(F)c2)C1=O` [Compound 26, (S)-2-ethyl-4-((1-(3-fluoro-4-((2-(trifluoromethyl)pyridin-4-yl)oxy)phenyl)ethyl)amino)-2,3-dihydro-1H-pyrrolo[3,4-c]pyridin-1-one] showed an IC50 (IDH1 R132C) greater than 1000 nM, an IC50 [1] greater than 1000 nM and an IC50 (IDH1 R132H) greater than 1000 nM.

In the case of `CCN1Cc2c(ccnc2N[C@@H](C)c2ccc(OC3CCC(F)(F)C3)c(F)c2)C1=O` (stereo partly drawn) [Compound 27, 4-(((1S)-1-(4-((3,3-difluorocyclopentyl)oxy)-3-fluorophenyl)ethyl)amino)-2-ethyl-2,3-dihydro-1H-pyrrolo[3,4-c]pyridin-1-one], the IC50 (IDH1 R132C) is reported as greater than 1000 nM, the IC50 [1] is reported as greater than 1000 nM and the IC50 (IDH1 R132H) is reported as greater than 1000 nM.

`CCN1Cc2c(ccnc2N[C@@H](C)c2ccc(OCC3CNC3)c(F)c2)C1=O` [Compound 28, (S)-4-((1-(4-(azetidin-3-ylmethoxy)-3-fluorophenyl)ethyl)amino)-2-ethyl-2,3-dihydro-1H-pyrrolo[3,4-c]pyridin-1-one] showed an IC50 (IDH1 R132C) greater than 1000 nM, an IC50 [1] greater than 1000 nM and an IC50 (IDH1 R132H) greater than 1000 nM.

In the case of `CCN1Cc2c(ccnc2N[C@@H](C)c2ccc(Oc3ccc4c(c3)CCN4C)c(F)c2)C1=O` [Compound 29, (S)-2-ethyl-4-((1-(3-fluoro-4-((1-methylindolin-5-yl)oxy)phenyl)ethyl)amino)-2,3-dihydro-1H-pyrrolo[3,4-c]pyridin-1-one], the IC50 (IDH1 R132C) is reported as 500 to 1000 nM, the IC50 [1] is reported as greater than 1000 nM and the IC50 (IDH1 R132H) is reported as 100 to 500 nM.

In the case of `CCN1Cc2c(ccnc2N[C@@H](C)c2ccc(Oc3ccnc4ccccc34)c(F)c2)C1=O` [Compound 30, (S)-2-ethyl-4-((1-(3-fluoro-4-(quinolin-4-yloxy)phenyl)ethyl)amino)-2,3-dihydro-1H-pyrrolo[3,4-c]pyridin-1-one], the IC50 (IDH1 R132C) is reported as greater than 1000 nM, the IC50 [1] is reported as greater than 1000 nM and the IC50 (IDH1 R132H) is reported as 500 to 1000 nM.

For `CCN1Cc2c(ccnc2N[C@@H](C)c2ccc(N(C)c3ccccc3)c(F)c2)C1=O` [Compound 31, (S)-2-ethyl-4-((1-(3-fluoro-4-(methyl(phenyl)amino)phenyl)ethyl)amino)-2,3-dihydro-1H-pyrrolo[3,4-c]pyridin-1-one], the IC50 (IDH1 R132C) was greater than 1000 nM, the IC50 [1] was greater than 1000 nM and the IC50 (IDH1 R132H) was greater than 1000 nM.

Compound `CCN1Cc2c(ccnc2N[C@@H](C)c2ccc(Nc3ccccc3)c(F)c2)C1=O` [Compound 32, (S)-2-ethyl-4-((1-(3-fluoro-4-(phenylamino)phenyl)ethyl)amino)-2,3-dihydro-1H-pyrrolo[3,4-c]pyridin-1-one] has an IC50 (IDH1 R132C) greater than 1000 nM, an IC50 [1] greater than 1000 nM and an IC50 (IDH1 R132H) greater than 1000 nM.

Compound `CCN1Cc2c(ccnc2N[C@@H](C)c2ccc(-c3ccc(C(F)(F)F)cc3)c(F)c2)C1=O` [Compound 33, (S)-2-ethyl-4-((1-(2-fluoro-4′-(trifluoromethyl)-[1,1′-biphenyl]-4-yl)ethyl)amino)-2,3-dihydro-1H-pyrrolo[3,4-c]pyridin-1-one] has an IC50 (IDH1 R132C) greater than 1000 nM, an IC50 [1] greater than 1000 nM and an IC50 (IDH1 R132H) of 500 to 1000 nM.

`CCN1Cc2c(ccnc2N[C@@H](C)c2ccc(-c3ccnc(C(F)(F)F)c3)c(F)c2)C1=O` [Compound 34, (S)-2-ethyl-4-((1-(3-fluoro-4-(2-(trifluoromethyl)pyridin-4-yl)phenyl)ethyl)amino)-2,3-dihydro-1H-pyrrolo[3,4-c]pyridin-1-one] showed an IC50 (IDH1 R132C) greater than 1000 nM, an IC50 [1] greater than 1000 nM and an IC50 (IDH1 R132H) greater than 1000 nM.

In the case of `CCN1Cc2c(ccnc2N[C@@H](C)c2ccc(C3=CCN(C(C)(C)C)CC3)c(F)c2)C1=O` [Compound 35, (S)-4-((1-(4-(1-(tert-butyl)-1,2,3,6-tetrahydropyridin-4-yl)-3-fluorophenyl)ethyl)amino)-2-ethyl-2,3-dihydro-1H-pyrrolo[3,4-c]pyridin-1-one], the IC50 (IDH1 R132C) is reported as greater than 1000 nM, the IC50 [1] is reported as greater than 1000 nM and the IC50 (IDH1 R132H) is reported as greater than 1000 nM.

For `CCN1Cc2c(ccnc2N[C@@H](C)c2ccc(C3CCN(C(C)(C)C)CC3)c(F)c2)C1=O` [Compound 36, (S)-4-((1-(4-(1-(tert-butyl)piperidin-4-yl)-3-fluorophenyl)ethyl)amino)-2-ethyl-2,3-dihydro-1H-pyrrolo[3,4-c]pyridin-1-one], the IC50 (IDH1 R132C) was greater than 1000 nM, the IC50 [1] was greater than 1000 nM and the IC50 (IDH1 R132H) was greater than 1000 nM.

Work on `C[C@H](Nc1nccc2c1CN(CC(F)F)C2=O)c1ccc(-c2ccnc(C(C)(C)C)c2)c(F)c1` [Compound 37, (S)-4-((1-(4-(2-(tert-butyl)pyridin-4-yl)-3-fluorophenyl)ethyl)amino)-2-(2,2-difluoroethyl)-2,3-dihydro-1H-pyrrolo[3,4-c]pyridin-1-one] yielded an IC50 (IDH1 R132C) of 100 to 500 nM, an IC50 [1] of 500 to 1000 nM and an IC50 (IDH1 R132H) of 100 to 500 nM.

`C[C@H](Nc1nccc2c1CN(C(CF)CF)C2=O)c1ccc(-c2ccnc(C(C)(C)C)c2)c(F)c1` [Compound 38, (S)-4-((1-(4-(2-(tert-butyl)pyridin-4-yl)-3-fluorophenyl)ethyl)amino)-2-(1,3-difluoropropan-2-yl)-2,3-dihydro-1H-pyrrolo[3,4-c]pyridin-1-one] showed an IC50 (IDH1 R132C) of 100 to 500 nM, an IC50 [1] of 500 to 1000 nM and an IC50 (IDH1 R132H) of less than 100 nM.
